In patent publication US12404242B2, “Compositions and methods for making and using small molecules in the treatment of cancer” (Reglagene, Inc., priority 2021, dated 2025):
≈ marks a conversion by molar mass, not a printed value. Where two headings read alike, the source gives them in different places.

How the values were obtained:
22RV1 cells = assay: Cell viability (AlamarBlue), 22RV1 prostate cancer cells; assay type: cell-based, human; conditions: 72 hours of treatment
How it was run: (§1)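 Plate cells; wait 24 h; add compound at increasing concentrations; incubate 72 h; read AlamarBlue fluorescence; normalize to untreated controls; fit EC50.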

LNCaP cells = assay: Cell viability (AlamarBlue), LNCaP prostate cancer cells; assay type: cell-based, human; conditions: 72 hours of treatment
How it was run: as §1

U87 cells = assay: Cell viability (AlamarBlue), U87 glioblastoma cells; assay type: cell-based, human; parameters: key to EC50 (μM) in U87 cells: Inactive: less than 50% inhibition at the highest concentration tested at 50 μM; conditions: 72 hours of treatment
How it was run: as §1

MCF7 cells = assay: Cell viability (AlamarBlue), MCF7 breast cancer cells; assay type: cell-based; conditions: Homo sapiens, 72 hours of treatment
Procedure: (§2) In another exemplary method, half maximal effective concentration (EC50) was determined for some compounds and their isomers as disclosed herein in a variety of human cancer cell lines. In brief, cells from two prostate cancer cell lines (LNCaP, 22RV1), one glioblastoma cell line (U87), one breast cancer cell line (MCF7), a glioma cell line (LN18), a normal prostate cell line (RWPE1), and a glioblastoma cell line (T98G) were plated in a multi-well plate. After 24 hours, one of the compounds herein was added to the well at increasing concentrations. After 72 hours of treatment, cell viability was assessed using AlamrBlue® (Invitrogen) and fluorescence was read using the CLARIOstar Plus Multilabel Plate Reader (BMG Labtech). Samples were normalized to no treatment controls. EC50 values were determined using GraphPad Prism.

RWPE1 cells = assay: Cell viability (AlamarBlue), RWPE1 normal prostate cells; assay type: cell-based, human; parameters: key to EC50 (μM) in RWPE1 cells: Inactive: less than 50% inhibition at the highest concentration tested at 50 μM; conditions: normal prostate cell line; for EC50 (μM) in RWPE1 cells: 72 hours of treatment
Procedure: as §2

[1] = Kinetic solubility in aqueous PBS buffer (HPLC-MS); assay type: physicochemical; conditions: kinetic from dmso stock
Procedure: In another exemplary method, central nervous system multiparameter optimization (CNS MPO) score and kinetic solubility of selected compounds was determined. CNS MPO score for compounds and their isomers disclosed herein were calculated using an algorithm that uses a weighted scoring function assessing 6 key physicochemical properties (clogP, clogD, MW, TPSA, HBD, and pKa) for blood-brain-barrier (BBB penetration). CNS MPO score ranged from 0 and 6.0 with scores≥4.0 used as a cut-off to select compounds that can have a high probability of accumulating in the CNS. Kinetic solubility of a compound is the maximum solubility of the fastest precipitating species of the compound. Kinetic solubility was determined by preparing a concentrated stock solution for compounds and their isomers disclosed herein in an organic solvent (DMSO), after which the solution was mixed with an aqueous PBS buffer and then filtered. Filtrate was tested to quantify the kinetic solubilty using HPLC-MS calibration curve. The CNS MPO Score and kinetic solubility of the compounds tested are provided in Table 7 where “ND” means not determined.

cancer cell = assay: Cancer cell viability, cell line not stated (per-compound ranges in description); assay type: cell-based; conditions: 'In some embodiments', values worded 'about', read-out: EC50 in cancer cell viability (range stated in description)
Procedure: as §2

[2] = DMSO stock mixed with aqueous PBS buffer, filtered, read-out: Kinetic Solubility
[3] = 'In some embodiments', values worded 'about', read-out: kinetic solubility (range stated in description)

Row | Structure (SMILES) | EC50 (MCF7 cells) [µM] | EC50 (LNCaP cells; Homo sapiens, LNCaP, 72 h) [µM] | EC50 (22RV1 cells; Homo sapiens, 22Rv1, 72 h) [µM] | EC50 (U87 cells; Homo sapiens, U-87 MG, 72 h) [µM] | EC50 (cancer cell) [µM] | solubility kinetic [1, 3] [µM] | EC50 (μM) in RWPE1 cells (RWPE1 cells) | other results
1 | COC1CC(C(=O)NC(=O)Nc2ccc(Oc3ccc(C#N)cn3)c(C)c2)C1 (single isomer, unassigned) [Compound 16A, N-((4-((5-cyanopyridin-2-yl)oxy)-3-methylphenyl)carbamoyl)-3-methoxycyclobutane-1-carboxamide] | 12.7 | 2.9 |  |  |  |  | Inactive | EC50 (22RV1 cells): 5.8 µM; EC50 (U87 cells): 10 µM
2 | COC1CCC(C(=O)NC(=O)Nc2ccc(Oc3ccc(F)cn3)c(C)c2)CC1 (centres unmarked) [Compound 9, 3-{4-[(5-fluoropyridin-2-yl)oxy]-3-methylphenyl}-1-(4-methoxycyclohexanecarbonyl)urea] | 8.5 | 11.5 | 5.1 | 4.9 |  |  | Inactive | 
3 | COC1CCC(C(=O)NC(=O)Nc2ccc(Oc3ccc(Cl)cn3)c(F)c2)CC1 (centres unmarked) [Compound 12, N-((4-((5-chloropyridin-2-yl)oxy)-3-fluorophenyl)carbamoyl)-4-methoxycyclohexane-1-carboxamide] | 1.9 | 3.1 | 1.9 | 1.9 |  |  |  | solubility kinetic [1, 2]: 0.28 µM (≈ 0.118 µg/mL); EC50 (RWPE1 cells; Homo sapiens, RWPE-1, 72 hours of treatment): 6.1 µM
4 | COC1CCC(C(=O)NC(=O)Nc2ccc(Oc3ncccn3)c(F)c2)CC1 (centres unmarked) [Compound 13, 3-[3-fluoro-4-(pyrimidin-2-yloxy)phenyl]-1-(4-methoxycyclohexanecarbonyl)urea] | 11.3 | 17.4 | 14.1 |  |  |  |  | 
5 | COC1CC(C(=O)NC(=O)Nc2ccc(Oc3cnc(N4CCOCC4)nc3)c(C)c2)C1 (centres unmarked) [Compound 44, 3-methoxy-N-((3-methyl-4-((2-morpholinopyrimidin-5-yl)oxy)phenyl)carbamoyl)cyclobutane-1-carboxamide] | 2.5 | 6.3 | 17.8 | 22 |  |  |  | solubility kinetic [1, 2]: 0.95 µM (≈ 0.419 µg/mL)
6 | COC12CC(C(=O)NC(=O)Nc3cc(C)c(Oc4ncc(Cl)cn4)c(F)c3)(C1)C2 [drawing 277, N-((4-((5-chloropyrimidin-2-yl)oxy)-3-fluoro-5-methylphenyl)carbamoyl)-3-methoxybicyclo[1.1.1]pentane-1-carboxamide] |  |  |  |  | 0.034 to 0.065 | 1.5 to 3.5 (≈ 0.631 to 1.47 µg/mL) |  | 
7 | COC1CC(C(=O)NC(=O)Nc2ccc(C)c(Oc3nccs3)c2)C1 (centres unmarked) [drawing 279, 3-methoxy-N-((4-methyl-3-(thiazol-2-yloxy)phenyl)carbamoyl)cyclobutane-1-carboxamide] |  |  |  |  | 0.01 to 0.05 | 7 to 11 (≈ 2.53 to 3.98 µg/mL) |  | 
8 | COC1CC(C(=O)NC(=O)Nc2ccc(C)c(Oc3ccccn3)c2)C1 (centres unmarked) [drawing 280, 3-methoxy-N-((4-methyl-3-(pyridin-2-yloxy)phenyl)carbamoyl)cyclobutane-1-carboxamide] |  |  |  |  | 0.002 to 0.007 | 10 to 14 (≈ 3.55 to 4.98 µg/mL) |  | 
9 | COC1CC(C(=O)NC(=O)Nc2ccc(C)c(Oc3ccc(F)cn3)c2)C1 (centres unmarked) [drawing 281, N-((3-((5-fluoropyridin-2-yl)oxy)-4-methylphenyl)carbamoyl)-3-methoxycyclobutane-1-carboxamide] |  |  |  |  | 0.005 to 0.03 | 5 to 9 (≈ 1.87 to 3.36 µg/mL) |  | 
10 | COC12CC(C(=O)NC(=O)Nc3ccc(C)c(Oc4ncccn4)c3)(C1)C2 [drawing 283, 3-methoxy-N-((4-methyl-3-(pyrimidin-2-yloxy)phenyl)carbamoyl)bicyclo[1.1.1]pentane-1-carboxamide] |  |  |  |  | 0.011 to 0.02 | 4 to 8 (≈ 1.47 to 2.95 µg/mL) |  | 

Continued, in another order:

Row | EC50 (MCF7 cells) [µM] | EC50 (LNCaP cells; Homo sapiens, LNCaP, 72 h) [µM] | EC50 (22RV1 cells; Homo sapiens, 22Rv1, 72 h) [µM] | EC50 (U87 cells; Homo sapiens, U-87 MG, 72 h) [µM] | EC50 (cancer cell) [µM] | solubility kinetic [1, 3] [µM] | Structure (SMILES) | EC50 (μM) in RWPE1 cells (RWPE1 cells) | other results
11 | 11.5 |  |  |  |  |  | COC1CC(C(=O)NC(=O)Nc2ccc(Oc3ccc(F)cn3)c(C)c2)C1 (single isomer, unassigned) [Compound 15A, N-((4-((5-fluoropyridin-2-yl)oxy)-3-methylphenyl)carbamoyl)-3-methoxycyclobutanecarboxamide] | Inactive | EC50 (22RV1 cells): 4.1 µM; EC50 (LNCaP cells): 1.6 µM; EC50 (U87 cells): 5.5 µM
12 | 5.8 |  |  |  |  |  | COC1CC(C(=O)NC(=O)Nc2ccc(Oc3ncc(Cl)cn3)c(C)c2)C1 (single isomer, unassigned) [Compound 20A, N-((4-((5-chloropyrimidin-2-yl)oxy)-3-methylphenyl)carbamoyl)-3-methoxycyclobutane-1-carboxamide] | Inactive | EC50 (22RV1 cells): 1.5 µM; EC50 (LNCaP cells): 0.87 µM; EC50 (U87 cells): 2.6 µM
13 | 3.4 | 2.4 | 3.7 | 6 |  |  | COC1CCC(C(=O)NC(=O)Nc2ccc(Oc3ncc(Cl)cn3)c(C)c2)CC1 (centres unmarked) [Compound 1, N-((4-((5-chloropyrimidin-2-yl)oxy)-3-methylphenyl)carbamoyl)-4-methoxycyclohexane-1-carboxamide] | Inactive | solubility kinetic [1, 2]: 4.9 µM (≈ 2.05 µg/mL)
14 | 20.9 | 19 | 41 |  |  |  | Cc1cc(NC(=O)NC(=O)C2COC2)ccc1Oc1ncc(Cl)cn1 [Compound 2, 1-{4-[(5-chloropyrimidin-2-yl)oxy]-3-methylphenyl}-3-(oxetane-3-carbonyl)urea] |  | 
15 | 2.4 | 2.8 | 2.9 | 4.4 |  |  | COC1CCC(C(=O)NC(=O)Nc2ccc(Oc3ccc(Cl)cn3)c(C)c2)CC1 (centres unmarked) [Compound 7, N-((4-((5-chloropyridin-2-yl)oxy)-3-methylphenyl)carbamoyl)-4-methoxycyclohexane-1-carboxamide] | Inactive | solubility kinetic [1, 2]: 0.49 µM (≈ 0.205 µg/mL)
16 | 24.3 | 27.5 | 26 | 36 |  |  | COC1CCC(C(=O)NC(=O)Nc2ccc(Oc3ncc(F)cn3)c(C)c2)CC1 (centres unmarked) [Compound 8, 3-{4-[(5-fluoropyrimidin-2-yl)oxy]-3-methylphenyl}-1-(4-methoxycyclohexanecarbonyl)urea] | Inactive | 
17 | 12.9 | 13 | 12.5 | 33.5 |  |  | COC1CCC(C(=O)NC(=O)Nc2ccc(Oc3ncccn3)c(C)c2)CC1 (centres unmarked) [Compound 10, 1-(4-methoxycyclohexanecarbonyl)-3-[3-methyl-4-(pyrimidin-2-yloxy)phenyl]urea] | Inactive | 
18 | 0.6 | 0.88 | 1.2 | 0.32 |  |  | COC1CC(C(=O)NC(=O)Nc2ccc(Oc3ncc(C)s3)c(C)c2)C1 (centres unmarked) [Compound 60, 3-methoxy-N-((3-methyl-4-((5-methylthiazol-2-yl)oxy)phenyl)carbamoyl)cyclobutane-1-carboxamide] |  | 
19 | 9.4 | 10.4 | 12.5 |  |  |  | Cc1cc(NC(=O)NC(=O)C2CCCCC2)ccc1Oc1ncc(Cl)cn1 [Compound 71, N-((4-((5-chloropyrimidin-2-yl)oxy)-3-methylphenyl)carbamoyl)cyclohexanecarboxamide] | Inactive | EC50 (μM) in U87 cells (U87 cells): Inactive
20 |  |  |  |  | 0.02 to 0.06 | 13 to 17 (≈ 4.63 to 6.06 µg/mL) | COC1CC(C(=O)NC(=O)Nc2ccc(C)c(Oc3ncccn3)c2)C1 (centres unmarked) [drawing 282, 3-methoxy-N-((4-methyl-3-(pyrimidin-2-yloxy)phenyl)carbamoyl)cyclobutane-1-carboxamide] |  | 
